The values that follow come from patent US11197904B2, “Pharmaceutical compositions for preventions and managements of dementia, infectious diseases, cancers, periodontitis, dental caries, diabetes, obesity, osteoporosis and chronic pain and methods thereof” (Chung Shan Medical University, priority 2018, dated 2021).

Test [1] concerns Lactobacillus reuteri (L.r.). Briefly: Proliferation of the probiotic Lactobacillus reuteri (OD600). The conditions noted are these: 3 to 10 times higher than the listed IC50; Table 1. Type of test: cell-based.
In test [2] the test system is Porphyromonas gingivalis (P.g.).
In test [3] the test system is Streptococcus mutans (S.m., UA159).
Test [4] relates to Pseudomonas aeruginosa (P.a.).
Test [5] has as its system Staphylococcus aureus (S.a).
[6] abbreviates: read-out: IC50, P. g., metals alone.
[7] abbreviates: read-out: IC50, UA159, metals alone.
Setting [8] is: read-out: IC50, P. a., metals alone.
Where [9] appears, read: read-out: IC50, S. a., metals alone.

Where two headings read alike, the source gives them in different places. Marks after values point to notes of the source that are not given here. Where only a bound is given, the exact number is not on record here.

Turning to `[Cl][Ag]` [AgCl], the “Inhibition on proliferation of Lactobacillus reuteri” value (“Inhibition on proliferation” below) in test [1] is recorded as “AgCl*”. For the same compound, the IC50 in test [2] (setting [6]) is 14 µM; in test [2] (read-out: IC50 of single drug, Table 14, P. g., drug alone), 14 µM; in test [3] (setting [7]) it was 35 µM; in test [3] (read-out: IC50 of single drug, Table 14, UA159, drug alone), 35 µM; in test [4] (setting [8]), 44 µM; in test [4] (read-out: IC50 of single drug, Table 14, P. a., drug alone) it was 42 µM. Moreover, the IC50 in test [5] (setting [9]) amounted to 28 µM; in test [5] (read-out: IC50 of single drug, Table 14, S. a., drug alone), 56 µM.
In the case of `[Cl][Mn][Cl]` [MnCl2], in test [1], the “Inhibition on proliferation” value is “MnCl2*”. The IC50 in test [2] (setting [6]) was 990 µM; in test [3] (setting [7]) it was 1440 µM; in test [4] (setting [8]), greater than 2000 µM; in test [5] (setting [9]), 2740 µM.
For `N.N.N.N.N.N.N.N.N.N.N.N.N.N.[Cl-].[Cl-].[Cl-].[Cl-].[Cl-].[Cl-].[O-2].[O-2].[Ru+3].[Ru+3].[Ru+4]` [Ruthenium red], in that order: “RuR*,”, 74 µM, 644 µM, 32 µM and greater than 116 µM.
With `[Cl-].[Cl-].[Sr+2]` [SrCl2], the “Inhibition on proliferation” value in test [1] is “SrCl2*”. Also, the IC50 in test [2] (setting [6]) was greater than 3000 µM; in test [3] (setting [7]) it was greater than 3000 µM; in test [4] (setting [8]) it was 4190 µM; in test [5] (setting [9]), 3590 µM.
`O=S(=O)([O-])[O-].[Zn+2]` [ZnSO4]: the “Inhibition on proliferation” value in test [1] was “ZnSO4*”. For the same compound, the IC50 worked out at 1060 µM in test [2] (setting [6]), 961 µM in test [3] (setting [7]), 1160 µM in test [4] (setting [8]) and 939 µM in test [5] (setting [9]).

The term IC50 denotes the point on the concentration scale where inhibition reaches its midpoint.
